Results: US10227333B2, “Inhibition of OLIG2 activity” (Curtana Pharmaceuticals, Inc., priority 2015, dated 2019)

Assays:
GBM8 cells = assay: GBM8 viability assay (Cell Titer Glo luminescence); assay type: cell-based; details: 72 h; human glioblastoma neurosphere cells GBM8, 3 days incubation at 37° C., inhibition of cell growth by Cell Titer Glo luminescence; read-out: FBM8 (IC50)
Method: (§1) Cell culture medium was prepared from a NSA proliferation kit (Neurocult) and NeuroCult supplements (Stemcell Tech Cat. #05751) and treated with 20 μL of 10 μg/mL rh EGF, 10 μL of 10 μg/mL rh bFGF and 10 μL of 0.2% Heparin. In this medium, human glioblastoma cells were cultured in ultra-low attachment tissue culture flasks until 1×10^6 cells ml was achieved (GBM4 and GBM8 are distinct neuro sphere cell cultures derived from these human patient tissues). GBM4 and GBM8 cells were dissociated and 10 mL of media containing 4000 human glioblastoma cells per 90 uL were transferred to an ultra-low binding 96-well plate and incubated at 37° C. overnight. On the following day, 10 μL of a 1% DMSO solution of test compound in assay medium was added to wells containing the cell suspension and the mixture incubated at 37° C. for 3 days. At this time, the plate was removed from the incubator and allowed to reach room temperature. After about 30 minutes, 50 μL of Cell Titer Glo solution was added to each well and the plate shaken for 1 minute at low speed. After 10 minutes luminescence was recorded using a Tecan Safire2 reader.
(§2) Reduction in luminescence compared to DMSO only control wells was used to determine the percentage inhibition of cell growth. IC50s were calculated using the % inhibition of luminescence for serial dilutions of compounds fitted to a 4-parameter fit within the Prism (San Diego) curve fitting program.

GBM4 cells = assay: GBM4 viability assay (Cell Titer Glo luminescence); assay type: cell-based; details: 72 h; human glioblastoma neurosphere cells GBM4, 3 days incubation at 37° C., inhibition of cell growth by Cell Titer Glo luminescence
Method: as §1, §2

Compound | IC50 (GBM8 cells) [µM] | IC50 (GBM4 cells) [µM]
C/N=C(\Nc1ccc(Cl)c(Cl)c1)Nc1cc(C)cc(NCCCN(C)C)n1 [Compound 35, 1-{6-[3-(3,4-Dichlorophenyl)-2-methylguanidino]-4-methyl-2-pyridylamino}-3-(dimethylamino)propane] | 10 to 30 | 
CCN1CCC(Oc2cc(C)nc(NC(=N)Nc3ccc(Cl)c(Cl)c3)n2)CC1 [Compound 25, 1-(3,4-dichlorophenyl)-3-[4-(1-ethyl-4-piperidyloxy)-6-methyl-2-pyrimidinyl]-guanidine] | 10 to 30 | 10 to 30
Cc1cc(NC2CCOCC2)nc(NC(=N)Nc2ccc(Cl)c(Cl)c2)n1 [Compound 16, 2-[3-(3,4-dichlorophenyl)guanidino]-6-methyl-4-(tetrahydro-2H-pyran-4-ylamino)-pyrimidine] | < 10 | 10 to 30
Cc1cc(OC2CCCNC2)nc(NC(=N)Nc2ccc(Cl)c(Cl)c2)n1 (stereo not drawn) [Compound 17, 1-(3,4-dichlorophenyl)-3-[6-methyl-4-(3-piperidyloxy)-2-pyrimidinyl]guanidine] | < 10 | 10 to 30
CCN1CCCC(Nc2cc(C)nc(NC(=N)Nc3ccc(Cl)c(Cl)c3)n2)C1 (racemic) [Compound 7, (±)-2-[3-(3,4-dichlorophenyl)guanidino]-4-(1-ethyl-3-piperidylamino)-6-methylpyrimidine] | < 10 | < 10
Cc1cc(Oc2ccncc2)nc(NC(=N)Nc2ccc(Cl)c(Cl)c2)n1 [Compound 8, 1-(3,4-dichlorophenyl)-3-[6-methyl-4-(4-pyridyloxy)-2-pyrimidinyl]guanidine] | > 30 | > 30
Cc1cc(NCCCN(C)C)nc(N/C(=N/C#N)Nc2ccc(Cl)c(Cl)c2)n1 [Compound 32, 1-(3,4-Dichlorophenyl)-3-{4-[3-(dimethylamino)propylamino]-6-methyl-2-pyrimidinyl}-2-guanidinecarbonitrile] | < 10 | 
Cc1cc(NC2CCCCC2)nc(NC(=N)Nc2ccc(Cl)c(Cl)c2)n1 [Compound 15, 4-(cyclohexylamino)-2-[3-(3,4-dichlorophenyl)guanidino]-6-methylpyrimidine] | < 10 | < 10
CCN1CCC(Nc2cc(C)nc(NC(=N)Nc3ccc(Cl)c(Cl)c3)n2)CC1 [Compound 26, 2-[3-(3,4-dichlorophenyl)guanidino]-4-(1-ethyl-4-piperidylamino)-6-methylpyrimidine] | < 10 | < 10
Cc1cc(NC2CCNCC2)nc(NC(=N)Nc2ccc(Cl)c(Cl)c2)n1 [Compound 9, 2-[3-(3,4-dichlorophenyl)guanidino]-6-methyl-4-(4-piperidylamino)pyrimidine] | > 30 | > 30
CCN1CCC[C@@H](Nc2cc(C)nc(NC(=N)Nc3ccc(Cl)c(Cl)c3)n2)C1 [Compound 12, 4-[(3R)-1-ethyl-3-piperidylamino]-2-[3-(3,4-dichlorophenyl)guanidino]-6-methyl-pyrimidine] | < 10 | < 10
Cc1cc(NCCCN(C)C)nc(/N=C(/Nc2ccc(Cl)c(Cl)c2)N(C)C)n1 [Compound 34, 1-{2-[3-(3,4-Dichlorophenyl)-1,1-dimethylguanidino]-6-methyl-4-pyrimidinylamino}-3-(dimethylamino)propane] | > 30 | 
Cc1cc(N[C@@H]2CCCNC2)nc(NC(=N)Nc2ccc(Cl)c(Cl)c2)n1 [Compound 11, (R)-1-(3,4-dichlorophenyl)-3-(4-methyl-6-(piperidin-3-ylamino)pyrimidin-2-yl)guanidine] | < 10 | < 10
Cc1cc(Oc2cccnc2)nc(NC(=N)Nc2ccc(Cl)c(Cl)c2)n1 [Compound 13, 1-(3,4-dichlorophenyl)-3-[6-methyl-4-(3-pyridyloxy)-2-pyrimidinyl]guanidine] | > 30 | 10 to 30
Cc1cc(Nc2cccnc2)nc(NC(=N)Nc2ccc(Cl)c(Cl)c2)n1 [Compound 14, 2-[3-(3,4-dichlorophenyl)guanidino]-6-methyl-4-(3-pyridylamino)pyrimidine] | < 10 | < 10
C/N=C(\Nc1ccc(Cl)c(Cl)c1)Nc1nc(C)cc(NCCCN(C)C)n1 [Compound 33, 1-{2-[3-(3,4-Dichlorophenyl)-2-methylguanidino]-6-methyl-4-pyrimidinylamino}-3-(dimethylamino)propane] | > 30 | 
Cc1cc(N(C)C)nc(NC(=N)Nc2ccc(Cl)c(Cl)c2)n1 [Compound 28, (N-methyl{2-[3-(3,4-dichlorophenyl)guanidino]-6-methyl-4-pyrimidinyl}amino)-methane] | < 10 | < 10
Cc1cc(N2CCN(C)CC2)nc(NC(=N)Nc2ccc(Cl)c(Cl)c2)n1 [Compound 27, 1-(3,4-dichlorophenyl)-3-[6-methyl-4-(4-methyl-1-piperazinyl)-2-pyrimidinyl]-guanidine] | < 10 | 10 to 30
Cc1cc(/N=C(/Nc2ccc(Cl)c(Cl)c2)N(C)C)nc(NCCCN(C)C)c1 [Compound 39, 1-{6-[3-(3,4-Dichlorophenyl)-1,1-dimethylguanidino]-4-methyl-2-pyridylamino}-3-(dimethylamino)propane] | > 30 | 
Cc1cc(N2CCOCC2)nc(NC(=N)Nc2ccc(Cl)c(Cl)c2)n1 [Compound 29, 1-(3,4-dichlorophenyl)-3-(4-methyl-6-morpholino-2-pyrimidinyl)guanidine] | < 10 | < 10
Cc1cc(NCCCN(C)C)nc(NC(=S)Nc2ccc(Cl)c(Cl)c2)n1 [Compound 31a, 1-{2-[3-(3,4-Dichlorophenyl)thioureido]-6-methyl-4-pyrimidinylamino}-3-(dimethylamino)propane] | < 10 | 
CCN1CCCC(Nc2cc(C)nc(NC(=N)N(C)c3ccc(Cl)c(Cl)c3)n2)C1 (stereo not drawn) [Compound 21, 2-[3-(3,4-dichlorophenyl)-3-methylguanidino]-4-[1-ethyl-3-piperidylamino]-6-methylpyrimidine] | > 30 | 10 to 30
CCN1CCC[C@H](Nc2cc(C)nc(NC(=N)Nc3ccc(Cl)c(Cl)c3)n2)C1 [Compound 24, (S)-1-(3,4-dichlorophenyl)-3-(4-(1-ethylpiperidin-3-ylamino)-6-methylpyrimidin-2-yl)guanidine] | < 10 | < 10
Cc1cc(N[C@H]2CCCNC2)nc(NC(=N)Nc2ccc(Cl)c(Cl)c2)n1 [Compound 10, (5)-1-(3,4-dichlorophenyl)-3-(4-methyl-6-(piperidin-3-ylamino)pyrimidin-2-yl)guanidine] | < 10 | < 10
